Test results published in patent US12509467B2 (Hoffmann-La Roche Inc., priority 2020, dated 2025).
Read-outs that look alike come from different tables or passages of the source.

Target: T1, human cGAS (residues 161-522) (Homo sapiens, UniProt Q8N884)
T1 construct: Recombinantly expressed purified human cGAS (residues 161-522) was used at 25 nM; made in house
Experiment: cGAS Activity Assay—Malachite Green
Format: biochemical
In short: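 Coupled malachite-green phosphate detection was used: enzyme and compound in 20 mM TRIS pH 7.5, 5 mM MgCl2, 0.01% BSA with 80 μM ATP, 80 μM GTP and 100 nM ISD DNA, 4 h at RT in the dark.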

[1] = cGAS inhibition, 25 nM cGAS, 80 μM ATP, 80 μM GTP, 100 nM ISD, 4 hour at RT, Malachite Green phosphate detection, read-out: IC50 cGAS

T1 sequence (Q8N884 161-522): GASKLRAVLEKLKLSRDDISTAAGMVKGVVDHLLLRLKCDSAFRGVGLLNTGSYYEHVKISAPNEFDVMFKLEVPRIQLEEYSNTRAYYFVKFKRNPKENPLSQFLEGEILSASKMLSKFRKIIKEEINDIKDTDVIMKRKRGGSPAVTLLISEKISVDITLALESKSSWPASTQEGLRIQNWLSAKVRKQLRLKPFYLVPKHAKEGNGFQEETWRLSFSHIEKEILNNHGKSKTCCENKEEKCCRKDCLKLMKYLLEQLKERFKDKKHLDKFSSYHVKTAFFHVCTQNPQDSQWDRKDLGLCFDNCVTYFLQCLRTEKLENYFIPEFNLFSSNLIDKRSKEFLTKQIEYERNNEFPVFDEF

Row | IC50 | IC50 [1] | Compound
1 | 2870 nM | – | CCCc1cc(=O)n2nc(NC(C)c3ccc(-c4ccccc4)cc3)nc2[nH]1 (centres unmarked) [Example 56, 2-[1-(4-phenylphenyl)ethyl-amino]-5-propyl-4H-[1,2,4]-triazolo[1,5-a]pyrimidin-7-one]
2 | – | 4920 nM | CCCc1cc(=O)n2nc(NCc3ccc(-c4ccn(C)n4)cc3)nc2[nH]1 [Example 14, 2-[[4-(1-methylpyrazol-3-yl)-phenyl]methylamino]-5-propyl-4H-[1,2,4]triazolo[1,5-a]-pyrimidin-7-one]

The remaining lines, values behind:

Row | Compound | IC50 | IC50 [1]
3 | CCCc1cc(=O)n2nc(NCc3cc(-c4ccccn4)ccc3Cl)nc2[nH]1 [Example 29, 2-[[2-chloro-5-(2-pyridyl)phen-yl]methylamino]-5-propyl-4H-[1,2,4]triazolo[1,5-a]pyrimidin-7-one] | 668 nM | –
4 | CC(C)Cc1cc(=O)n2nc(NCc3ccc(Cl)cc3Cl)nc2[nH]1 [Example 64, 2-[(2,4-dichlorophenyl)methyl-amino]-5-isobutyl-4H-[1,2,4]-triazolo[1,5-a]pyrimidin-7-one] | 3330 nM | –
5 | Cn1ccc(-c2ccc(CNc3nc4[nH]c(C(F)(F)F)cc(=O)n4n3)cc2)n1 [Example 18, 2-[[4-(1-methylpyrazol-3-yl)-phenyl]methylamino]-5-(trifluoromethyl)-4H-[1,2,4]-triazolo[1,5-a]pyrimidin-7-one] | – | 2820 nM
